In PubChem BioAssay (NCI):
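All cell lines were grown in 96-well plates and treated with compound for 48 hours. The concentration for 50% growth inhibition is given as GI50. The concentration for full growth arrest is given as TGI.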

Key:
Assay in all cases: NCI anticancer screen, dose series, 48 h
786-0 renal = system: 786-0 renal
A498 renal = system: A498 renal
A549 NSCLC = system: A549 NSCLC
ACHN renal = system: ACHN renal
BT-549 breast = system: BT-549 breast
CAKI-1 renal = system: CAKI-1 renal
CCRF-CEM leukemia = system: CCRF-CEM leukemia
COLO 205 colon = system: COLO 205 colon
DU-145 prostate = system: DU-145 prostate
EKVX NSCLC = system: EKVX NSCLC
HCC-2998 colon = system: HCC-2998 colon
HCT-116 colon = system: HCT-116 colon
HCT-15 colon = system: HCT-15 colon
HL-60(TB) leukemia = system: HL-60(TB) leukemia
HOP-62 NSCLC = system: HOP-62 NSCLC
HOP-92 NSCLC = system: HOP-92 NSCLC
HS 578T breast = system: HS 578T breast
HT29 colon = system: HT29 colon
IGROV1 ovarian = system: IGROV1 ovarian
K-562 leukemia = system: K-562 leukemia
KM12 colon = system: KM12 colon
LOX IMVI melanoma = system: LOX IMVI melanoma
M14 melanoma = system: M14 melanoma
MALME-3M melanoma = system: MALME-3M melanoma
MCF7 breast = system: MCF7 breast
MDA-MB-231 breast = system: MDA-MB-231 breast
MDA-MB-435 = system: MDA-MB-435
MOLT-4 leukemia = system: MOLT-4 leukemia
NCI-H226 lung = system: NCI-H226 lung
NCI-H23 lung = system: NCI-H23 lung
NCI-H460 lung = system: NCI-H460 lung
NCI-H522 lung = system: NCI-H522 lung
NCI/ADR-RES ovarian = system: NCI/ADR-RES ovarian
OVCAR-3 ovarian = system: OVCAR-3 ovarian
OVCAR-4 ovarian = system: OVCAR-4 ovarian
OVCAR-5 ovarian = system: OVCAR-5 ovarian
OVCAR-8 ovarian = system: OVCAR-8 ovarian
PC-3 prostate = system: PC-3 prostate
RPMI-8226 leukemia = system: RPMI-8226 leukemia
RXF 393 renal = system: RXF 393 renal
SF-268 CNS = system: SF-268 CNS
SF-295 CNS = system: SF-295 CNS
SF-539 CNS = system: SF-539 CNS
SK-MEL-2 melanoma = system: SK-MEL-2 melanoma
SK-MEL-28 melanoma = system: SK-MEL-28 melanoma
SK-MEL-5 melanoma = system: SK-MEL-5 melanoma
SK-OV-3 ovarian = system: SK-OV-3 ovarian
SN12C renal = system: SN12C renal
SNB-19 CNS = system: SNB-19 CNS
SNB-75 CNS = system: SNB-75 CNS
SR leukemia = system: SR leukemia
SW-620 colon = system: SW-620 colon
T-47D breast = system: T-47D breast
TK-10 renal = system: TK-10 renal
U251 CNS = system: U251 CNS
UACC-257 melanoma = system: UACC-257 melanoma
UACC-62 melanoma = system: UACC-62 melanoma
UO-31 renal = system: UO-31 renal

## COc1ccc(/C=C(\C#N)c2ccc(OC)cc2)cc1
786-0 renal
  GI50: > 100 µM
  TGI: > 100 µM
A498 renal
  GI50: > 100 µM
  TGI: > 100 µM
A549 NSCLC
  GI50: > 100 µM
  TGI: > 100 µM
ACHN renal
  GI50: 76.1 µM
  TGI: > 100 µM
BT-549 breast
  GI50: 22.9 µM
  TGI: > 100 µM
CAKI-1 renal
  GI50: 13.1 µM
  TGI: > 100 µM
CCRF-CEM leukemia
  GI50: 9.47 µM
  TGI: > 100 µM
COLO 205 colon
  GI50: 21.1 µM
  TGI: > 100 µM
DU-145 prostate
  GI50: 14.9 µM
  TGI: > 100 µM
EKVX NSCLC
  GI50: 14.5 µM
  TGI: > 100 µM
HCC-2998 colon
  GI50: 7.38 µM
  TGI: > 100 µM
HCT-116 colon
  GI50: 7.15 µM
  TGI: > 100 µM
HCT-15 colon
  GI50: 4.56 µM
  TGI: > 100 µM
HL-60(TB) leukemia
  GI50: 13.5 µM
  TGI: > 100 µM
HOP-62 NSCLC
  GI50: 69.9 µM
  TGI: > 100 µM
HOP-92 NSCLC
  GI50: 23.5 µM
  TGI: > 100 µM
HS 578T breast
  GI50: 82.2 µM
  TGI: > 100 µM
HT29 colon
  GI50: 7.1 µM
  TGI: > 100 µM
IGROV1 ovarian
  GI50: 46.1 µM
  TGI: > 100 µM
K-562 leukemia
  GI50: 2.78 µM
  TGI: > 100 µM
KM12 colon
  GI50: 3.87 µM
  TGI: > 100 µM
LOX IMVI melanoma
  GI50: 13.3 µM
  TGI: > 100 µM
M14 melanoma
  GI50: 8.18 µM
  TGI: > 100 µM
MALME-3M melanoma
  GI50: > 100 µM
  TGI: > 100 µM
MCF7 breast
  GI50: 41.5 µM
  TGI: > 100 µM
MDA-MB-231 breast
  GI50: 33.6 µM
  TGI: > 100 µM
MDA-MB-435
  GI50: 0.563 µM
  TGI: 18.4 µM
MOLT-4 leukemia
  GI50: 5.49 µM
  TGI: > 100 µM
NCI-H226 lung
  GI50: > 100 µM
  TGI: > 100 µM
NCI-H23 lung
  GI50: 9.77 µM
  TGI: > 100 µM
NCI-H460 lung
  GI50: 7.31 µM
  TGI: > 100 µM
NCI-H522 lung
  GI50: 42.8 µM
  TGI: > 100 µM
NCI/ADR-RES ovarian
  GI50: 3.13 µM
  TGI: 29.3 µM
OVCAR-3 ovarian
  GI50: 7.59 µM
  TGI: 52 µM
OVCAR-4 ovarian
  GI50: 27.4 µM
  TGI: > 100 µM
OVCAR-5 ovarian
  GI50: 62.3 µM
  TGI: > 100 µM
OVCAR-8 ovarian
  GI50: 91.8 µM
  TGI: > 100 µM
PC-3 prostate
  GI50: 30 µM
  TGI: > 100 µM
RPMI-8226 leukemia
  GI50: 9.48 µM
  TGI: > 100 µM
RXF 393 renal
  GI50: 13.7 µM
  TGI: > 100 µM
SF-268 CNS
  GI50: > 100 µM
  TGI: > 100 µM
SF-295 CNS
  GI50: 8.01 µM
  TGI: > 100 µM
SF-539 CNS
  GI50: 20.7 µM
  TGI: > 100 µM
SK-MEL-2 melanoma
  GI50: > 100 µM
  TGI: > 100 µM
SK-MEL-28 melanoma
  GI50: > 100 µM
  TGI: > 100 µM
SK-MEL-5 melanoma
  GI50: 4.85 µM
  TGI: > 100 µM
SK-OV-3 ovarian
  GI50: 42 µM
  TGI: > 100 µM
SN12C renal
  GI50: 81.7 µM
  TGI: > 100 µM
SNB-19 CNS
  GI50: 82.8 µM
  TGI: > 100 µM
SNB-75 CNS
  GI50: 87.6 µM
  TGI: > 100 µM
SR leukemia
  GI50: 2.07 µM
  TGI: > 100 µM
SW-620 colon
  GI50: 5.81 µM
  TGI: > 100 µM
T-47D breast
  GI50: 32.2 µM
  TGI: > 100 µM
TK-10 renal
  GI50: > 100 µM
  TGI: > 100 µM
U251 CNS
  GI50: 20.6 µM
  TGI: > 100 µM
UACC-257 melanoma
  GI50: > 100 µM
  TGI: > 100 µM
UACC-62 melanoma
  GI50: 10.3 µM
  TGI: > 100 µM
UO-31 renal
  GI50: > 100 µM
  TGI: > 100 µM

## Cc1cc(-c2ncc(-c3cccnc3)cc2/C=C/c2ccccc2)cnc1-c1cccnc1
786-0 renal
  GI50: 6.05 µM
  TGI: > 100 µM
A498 renal
  GI50: 2.31 µM
  TGI: > 30.9 µM
A549 NSCLC
  GI50: 3.92 µM
  TGI: > 100 µM
ACHN renal
  GI50: 3.91 µM
  TGI: > 100 µM
BT-549 breast
  GI50: 3.05 µM
  TGI: 20.8 µM
CAKI-1 renal
  GI50: 4.25 µM
  TGI: > 100 µM
CCRF-CEM leukemia
  GI50: 1.17 µM
  TGI: 7.76 µM
COLO 205 colon
  TGI: > 100 µM
DU-145 prostate
  GI50: 3.35 µM
  TGI: > 100 µM
EKVX NSCLC
  GI50: 3.39 µM
  TGI: > 100 µM
HCC-2998 colon
  GI50: > 25.4 µM
  TGI: > 100 µM
HCT-116 colon
  GI50: 4.22 µM
  TGI: > 100 µM
HCT-15 colon
  GI50: 2.95 µM
  TGI: > 100 µM
HL-60(TB) leukemia
  GI50: 2.35 µM
  TGI: 12.3 µM
HOP-62 NSCLC
  GI50: 4.45 µM
  TGI: 97.5 µM
HOP-92 NSCLC
  GI50: 2.96 µM
  TGI: > 26 µM
HS 578T breast
  GI50: 3.39 µM
  TGI: > 100 µM
HT29 colon
  GI50: 3.52 µM
  TGI: > 100 µM
IGROV1 ovarian
  GI50: 5.39 µM
  TGI: > 100 µM
K-562 leukemia
  GI50: 3.28 µM
  TGI: > 100 µM
KM12 colon
  GI50: 3.3 µM
  TGI: > 100 µM
LOX IMVI melanoma
  GI50: 3.12 µM
  TGI: 19.7 µM
M14 melanoma
  GI50: 4.24 µM
  TGI: > 100 µM
MALME-3M melanoma
  GI50: 2.81 µM
  TGI: 16.9 µM
MCF7 breast
  GI50: 3.02 µM
  TGI: > 100 µM
MDA-MB-231 breast
  GI50: 4.76 µM
  TGI: > 100 µM
MDA-MB-435
  TGI: > 100 µM
MOLT-4 leukemia
  GI50: 1.47 µM
  TGI: 5.99 µM
NCI-H226 lung
  GI50: 2.62 µM
  TGI: 7.61 µM
NCI-H23 lung
  GI50: 4.59 µM
  TGI: > 100 µM
NCI-H460 lung
  GI50: 2.28 µM
  TGI: 5.27 µM
NCI-H522 lung
  GI50: 3.01 µM
  TGI: 14.9 µM
NCI/ADR-RES ovarian
  GI50: 3.62 µM
  TGI: > 100 µM
OVCAR-3 ovarian
  GI50: 3.48 µM
  TGI: 37.7 µM
OVCAR-4 ovarian
  GI50: > 21.1 µM
  TGI: > 100 µM
OVCAR-5 ovarian
  GI50: > 72.6 µM
  TGI: > 100 µM
OVCAR-8 ovarian
  GI50: 3.81 µM
  TGI: > 100 µM
PC-3 prostate
  GI50: 3.21 µM
  TGI: > 100 µM
RPMI-8226 leukemia
  GI50: 2.53 µM
  TGI: 16.7 µM
RXF 393 renal
  GI50: 4.13 µM
  TGI: 75.3 µM
SF-268 CNS
  GI50: 5.81 µM
  TGI: > 100 µM
SF-295 CNS
  GI50: 5.62 µM
  TGI: 52.1 µM
SF-539 CNS
  GI50: 11.5 µM
  TGI: > 33.2 µM
SK-MEL-2 melanoma
  GI50: 4.93 µM
  TGI: > 66.9 µM
SK-MEL-28 melanoma
  GI50: > 20.2 µM
  TGI: > 100 µM
SK-MEL-5 melanoma
  GI50: 1.46 µM
  TGI: 3.02 µM
SK-OV-3 ovarian
  GI50: 19.1 µM
  TGI: > 100 µM
SN12C renal
  GI50: 3.59 µM
  TGI: > 100 µM
SNB-19 CNS
  GI50: 5.32 µM
  TGI: > 100 µM
SNB-75 CNS
  GI50: 5.23 µM
  TGI: > 63.4 µM
SR leukemia
  GI50: 2.69 µM
  TGI: > 28.5 µM
SW-620 colon
  GI50: 4.41 µM
  TGI: > 100 µM
T-47D breast
  GI50: 2.4 µM
  TGI: > 30.8 µM
TK-10 renal
  TGI: > 100 µM
U251 CNS
  GI50: 4.54 µM
  TGI: > 100 µM
UACC-257 melanoma
  GI50: 5.08 µM
  TGI: > 100 µM
UACC-62 melanoma
  GI50: 3.91 µM
  TGI: > 83.9 µM
UO-31 renal
  GI50: 2.27 µM
  TGI: 9.04 µM
